Entries after “also recorded” stand apart in the source; their conditions may differ.
Key:
[1] = Free radical scavenging activity assay (DPPH); conditions: DPPH stable radical, 30 min, absorbance 517 nm; read-out: Free radical scavenging activity IC50 (µM) [SEM]
Experimental: A mechanism by which 5-LO activity can be inhibited is through reductive inhibition of the ferric non-heme iron of the enzyme. Interactions with stable free radicals provides an evaluation of the reducing ability of the test compounds. Radical scavenging activities of compounds tested in stimulated PMNL were assayed using 2,2-Diphenyl-1-picrylhydrazyl (DPPH) as a stable radical and are expressed as IC50 concentrations in Table 1.
The free radical scavenging activity of test compounds was measured as previously described using 2,2-diphenyl-1-picrylhydrazyl (DPPH) as a stable radical with slight modifications. DPPH (200 µL) in ethanol (250 µM) was mixed with 200 µL of the test compounds (1, 5, 10, 25, 50, 75, and 100 µg/mL). Each mixture was then shaken vigorously and held in the dark for 30 min at room temperature. The absorbance of DPPH at 517 nm was then measured. The radical scavenging activity was expressed in terms of % inhibition of DPPH absorbance:% Inhibition = (A control − A test)/A control) × 100 where A control is the absorbance of the control (DPPH solution without test compounds) and A test is the absorbance of the test sample (DPPH solution plus compounds). Ascorbic acid was used as a positive control. Data were expressed as mean ± SEM of three independent experiments, each performed in triplicate. IC50 values were calculated from a sigmoidal concentration-response curve-fitting model with a variable slope on GraphPad Prism software.

5-LO [2] = target: T1, 5-LO (Homo sapiens, UniProt P09917); test: 5-LO products biosynthesis assay in human PMNL cells; type: cell-based; parameters: 5-LO is highly expressed in PMNL; endogenous in cells; host or cells: human PMNL from peripheral blood of healthy volunteers; conditions: for Inhibition of the biosynthesis of 5-LO products in human PMNL cells: compounds at 1 µM, result in words, compared with zileuton (1), SAPE (2) or controls, thapsigargin stimulation
T1 sequence (P09917 1-674): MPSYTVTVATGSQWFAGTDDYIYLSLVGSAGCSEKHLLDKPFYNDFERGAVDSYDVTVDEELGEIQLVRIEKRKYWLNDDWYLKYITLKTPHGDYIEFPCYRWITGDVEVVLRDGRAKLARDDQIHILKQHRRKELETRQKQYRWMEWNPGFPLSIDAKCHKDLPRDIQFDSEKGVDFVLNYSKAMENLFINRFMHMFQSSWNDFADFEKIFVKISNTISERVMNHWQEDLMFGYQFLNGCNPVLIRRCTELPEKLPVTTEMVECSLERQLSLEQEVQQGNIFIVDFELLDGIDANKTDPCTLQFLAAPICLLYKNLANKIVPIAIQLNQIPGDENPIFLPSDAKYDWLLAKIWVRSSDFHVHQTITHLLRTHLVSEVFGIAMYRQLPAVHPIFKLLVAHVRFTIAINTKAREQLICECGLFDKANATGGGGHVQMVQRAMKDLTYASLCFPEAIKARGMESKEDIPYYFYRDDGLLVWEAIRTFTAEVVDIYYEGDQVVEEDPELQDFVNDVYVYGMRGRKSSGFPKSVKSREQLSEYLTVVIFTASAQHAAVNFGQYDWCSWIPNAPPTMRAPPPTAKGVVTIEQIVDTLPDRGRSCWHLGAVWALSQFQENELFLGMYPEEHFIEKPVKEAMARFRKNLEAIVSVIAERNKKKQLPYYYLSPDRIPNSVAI
Description: To further probe the inhibitory activity of compounds that approached the inhibitory activity of zileuton (1) and SAPE (2), compounds were selected for further screening in PMNL (Figure 6). 5-LO is highly expressed in PMNL and these cells are important physiological producers of LTB4 [17]. […] The presence of the hydroxyl group in position 4 and the methoxy groups in positions 3 and 5 seems to be an ideal combination for inhibition of 5-LO (Figure 6). These structural changes may influence the availability, cell permeation, or even the stability of inhibitors in PMNL versus HEK293 cells. […] Human PMNL were prepared from peripheral blood of healthy consenting volunteers as described. Human PMNL are an important source of 5-LO metabolites and are relevant primary inflammatory cells for the evaluation of the best compounds identified during the screening process. PMNL were suspended in HBSS containing 1.6 mM CaCl2 (10^7 cells/mL) and pre-incubated with compounds dissolved in DMSO for 5 min at 37 °C in the presence of 0.4 U/mL of adenosine deaminase (Sigma-Aldrich, Oakville, On, Canada). Cells were then stimulated for 15 min at 37 °C with 1 μM thapsigargin (Sigma-Aldrich). Reactions were stopped by the addition of 0.5 mL of cold MeOH:CH3CN (1:1) and 50 ng of PGB2 as internal standard and samples were stored at -20 °C until processing for RP-HPLC analysis as indicated above.

5-LO [3] = target: T1, 5-LO; test: 5-LO product biosynthesis assay in stimulated HEK293 cells co-transfected with 5-LO and FLAP; type: cell-based; parameters: expressed in transfected cells; host or cells: HEK293 cells, stably co-transfected (pcDNA3.1 5-LO, pBUDCE4.1 FLAP); conditions: compounds at 1 µM; result in words, compared with zileuton (1) and SAPE (2) at 1 µM; A23187 + arachidonic acid stimulation
Experimental: All compounds, including known inhibitors zileuton (1) and SAPE (2), were assayed at 1 µM (Figure 1) for inhibition of LTs biosynthesis in stimulated HEK293 cells. These cells are stably transfected with human 5-LO and serves as a highly reproducible model of 5-LO product biosynthesis in which compounds can be preliminarily screened for anti-LTs activity before moving on to more complex systems. […] Esterification of benzo[b]thiophene-2-carboxylic acid to obtain benzyl to phenbutyl analogs (4–7) had no effect on the inhibitory activity of 5-LO. […] Even the addition of a hydroxyl (8) or methoxy (9) at para-position of the phenethyl group has no effect on the activity.
HEK293 cells were stably co-transfected with a pcDNA3.1 vector expressing 5-LO and a pBUDCE4.1 vector expressing 5-LO activating protein (FLAP) as previously reported. This represents a controlled model for the evaluation of 5-LO inhibition in a cellular system. For cell stimulation of 5-LO products, transfected HEK293 cells were collected following trypsinization, washed and the cell pellet was resuspended in Hank’s balanced salt solution (HBSS) (Lonza, Walkerville, MD) containing 1.6 mM CaCl2 at a concentration of 5 × 10^5 cells/mL. Cells were pre-incubated with each compound dissolved in DMSO at the indicated concentration for 5 min at 37 °C. Cells were then stimulated for 15 min at 37 °C with the addition of 10 µM calcium ionophore A23187 (Sigma-Aldrich, Oakville, ON, Canada) and 10 µM arachidonic acid (Cayman Chemical, Ann Arbor, MI). Stimulation was stopped and processed for RP-HPLC analysis as described previously.

| SMILES | IC50 [1] [µM] | Inhibition of the biosynthesis of 5-LO products in stimulated HEK293 cells (5-LO [3]) | melting point [°C] | IC50 (5-LO [2]; 95% confidence interval: 0.25–0.53 μM, read-out: IC50 for the inhibition of 5-LO product biosynthesis in PMNL) [µM] | Inhibition of the biosynthesis of 5-LO products in human PMNL cells (5-LO [2]) |
| --- | --- | --- | --- | --- | --- |
| COc1ccc(/C=C/C(=O)c2cc3ccccc3s2)cc1O [Compound 17] | 64.7 |  |  |  | less active than zileuton (1) and SAPE (2) |
| COc1cc(/C=C/C(=O)c2cc3ccccc3s2)cc(OC)c1OC [Compound 26] |  | inactive |  |  |  |
| COc1cc(OC)c(/C=C/C(=O)c2cc3ccccc3s2)c(OC)c1 [Compound 27] | 6.9 | equipotent to Zileuton (1) |  |  | complete loss of the 5-LO inhibition |
| NC(=O)N(O)C(=O)/C=C/c1ccccc1 [Compound 33, 1-Hydroxy-1-((E)-3-phenylacryloyl)urea] |  | inactive | 130 to 132 |  |  |
| COc1cc(/C=C/C(=O)c2cc3ccccc3s2)cc(O)c1OC [Compound 31] | 6.6 | inactive; also recorded: less active than compound 28 |  |  | total loss of activity; also recorded: inactive |
| O=C(OCCc1ccccc1)c1cc2ccccc2s1 [Compound 5, Phenethyl 1-benzothiophene-2-carboxylate] |  |  | 61 to 62 |  |  |
| Cc1cc(/C=C/C(=O)c2cc3ccccc3s2)cc(C)c1O [Compound 29] |  | does not seem to be favorable for the inhibition of 5-LO products |  |  |  |
| COc1cc(O)cc(OC)c1/C=C/C(=O)c1cc2ccccc2s1 [Compound 30] |  | less active than compound 28 |  |  |  |
| COc1cc(/C=C/C(=O)c2cc3ccccc3s2)ccc1O [Compound 18] | 68.8 | not-significantly different than zileuton (1) |  |  | less active than zileuton (1) and SAPE (2) |
| COc1cc(/C=C/C(=O)c2cc3ccccc3s2)cc(OC)c1O [Compound 28] | 48.9 | equipotent to zileuton (1); also recorded: non-significantly different than zileuton (1) and SAPE (2) |  | 0.37 | three times as active as zileuton (1); also recorded: exceeding zileuton’s (1) inhibitory capacity in PMNL by more than three times |
| O=C(/C=C/c1ccccc1O)c1cc2ccccc2s1 [Compound 14, (E)-1-(1-Benzothiophen-2-yl)-3-(o-hydroxyphenyl)-2-propen-1-one] | 31.8 | non-significantly different than Zileuton (1) | 178 to 180 |  | neither compound showed significant inhibition compared to controls |
| COc1cc(/C=C/C(=O)c2cc3ccccc3s2)cc(OC)c1 [Compound 20] |  | not-significantly different than zileuton (1) |  |  |  |
| O=C(/C=C/c1ccc(O)cc1)c1cc2ccccc2s1 [Compound 16] | 68.9 | non-significantly different than Zileuton (1) |  |  | neither compound showed significant inhibition compared to controls |
| COc1ccc(/C=C/C(=O)N(O)C(N)=O)cc1O [Compound 34, 1-Hydroxy-1-((E)-3-(3-hydroxy-4-methoxyphenyl)acryloyl)urea] |  | inactive | 170 to 172 |  |  |
| O=C(/C=C/c1ccccc1)c1cc2ccccc2s1 [Compound 11, (E)-1-(1-Benzothiophen-2-yl)-3-phenyl-2-propen-1-one] |  | less active than SAPE (2); also recorded: non-significantly different than Zileuton (1) | 118 to 120 |  |  |

The next lines start with results.

| IC50 [1] [µM] | Inhibition of the biosynthesis of 5-LO products in stimulated HEK293 cells (5-LO [3]) | melting point [°C] | IC50 (5-LO [2]; 95% confidence interval: 0.25–0.53 μM, read-out: IC50 for the inhibition of 5-LO product biosynthesis in PMNL) [µM] | SMILES | Inhibition of the biosynthesis of 5-LO products in human PMNL cells (5-LO [2]) |
| --- | --- | --- | --- | --- | --- |
|  | inactive |  |  | NC(=O)N(O)C(=O)CCc1ccccc1 [Compound 40] |  |
|  | inactive |  |  | COc1cc(/C=C/C(=O)N(O)C(N)=O)ccc1O [Compound 35] |  |
| 21.8 |  |  |  | O=C1O[C@H]([C@@H](O)CO)C(O)=C1O [Vitamin C, Ascorbic acid, reference compound] |  |
|  | inactive | 127 to 129 |  | NC(=O)N(O)C(=O)c1ccccc1 [Compound 38, 1-Hydroxy-1-(benzoyl)urea] |  |
| > 100 |  |  |  | CC(c1cc2ccccc2s1)N(O)C(N)=O (stereo not shown) [Zileuton (1), zileuton] |  |
| 25.4 |  |  |  | COc1cc(/C=C/C(=O)OCCc2ccccc2)cc(OC)c1O [SAPE (2), sinapic acid phenethyl ester, reference compound] |  |
|  | inactive |  |  | COc1ccc(/C=C/C(=O)N(O)C(N)=O)cc1OC [Compound 36] |  |
| 13.3 | inactive |  |  | COc1cc(/C=C/C(=O)N(O)C(N)=O)cc(OC)c1O [Compound 37] | inactivity; also recorded: inactive |
|  | inactive | 133 to 135 |  | NC(=O)N(O)C(=O)Cc1ccccc1 [Compound 39, 1-Hydroxy-1-(2-phenylacetyl)urea] |  |

Reference: PMC7587396, “New Zileuton-Hydroxycinnamic Acid Hybrids: Synthesis and Structure-Activity Relationship towards 5-Lipoxygenase Inhibition” (Molecules, 2020)
